Reference: patent US9443060B2, “Method and system to provide personalized pharmaceutical compositions and dosages” (Volant Holdings GMBH, priority 2009, dated 2016)
Like-named read-outs stand apart in the source and are kept apart here.

How the values were obtained:
[1] = test system: hepatic gluconeogenesis (GNG); test: Glucose supply and insulin demand model: effect on hepatic gluconeogenesis; format: in vivo, human
Method: (§1) Therapeutic targets of the glucose supply (CE, 1+2; HGU, 3; GNG, 4; IR, 5) and insulin demand (PGU, 6; PIE, 7) model are presented in FIG. 1. To identify quantitative differences between antidiabetic agents on CE, HGU, GNG, IR, PGU, and PIE, multidatabase searches (Cochrane Central Register of Controlled Trials and Cochrane Register of Systematic Reviews, Embase, OVID Healthstar, OVID Journals, and PubMed) were conducted cross-referencing title and keywords for all selected antidiabetic therapies and their respective targets.
(§2) Alpha-glucosidase, biguanide, and thiazolidinedione (TZD) studies with long-term, pre-post design at maximal therapeutic doses were identified to simulate chronic administration. To maintain consistency with cardiovascular trials and accommodate known influences of hyperglycemia and hyperinsulinemia on the respective targets,^13-16 studies including patients with HbA1c in the range of 6-8% and body mass index (BMI)≧30 kg/m^2 were preferentially selected. In the event multiple studies were available to identify the effect of an agent on a therapeutic target, the mean percent change was used. Conversely, if there was evidence that an agent would elicit a response on a given target but no mathematical representation of the difference was provided, conservative estimates consistent with the scale of other agents and the degree of glucose regulation were instituted to best represent the expected effect. Individual agents were then characterized for the 24 h percent change from baseline for CE, HGU, GNG, IR, PGU, and PIE. Carbohydrate exposure was determined as the combined effect of caloric intake and intestinal carbohydrate absorption. Hepatic glucose uptake was defined as the reported value obtained immediately following oral glucose loading. Because GNG is known to be enhanced in the fasting state and persistent throughout the prandial phase,^17,18 effect was determined during the fasting state and considered equivalent throughout the prandial phase. For studies evaluating fasting glucose and insulin concentrations, an index of IR was determined by homeostasis model assessment of insulin resistance (HOM-AIR) using the following formula: Insulin (mU/liter)×Glucose (mmol)/22.5.^19 To account for known differences in secretory and uptake dynamics during the fasting and prandial phases, studies identifying the impact of therapies during the fasting state (or simulated hyperinsulinemic euglycemic clamp) and prandial phase (or oral glucose load insulin clamp) were specifically identified for changes in PGU (glucose infusion rate) and PIE (insulin concentrations) according to Equation (1): […]
(§3) For sulfonylurea and insulin-based therapies, insulin concentration time profiles were obtained and superimposed on the baseline 24 h insulin concentration time profile of T2D patients (FIG. 2) to calculate the increase in PIE (trapezoidal rule).^20 Calculated increases in incremental and cumulative insulin exposure were correlated to known insulin dose-response effects on HGU, GNG, and PGU (FIG. 3),^18,21 according to the equation y=mx+b. Twenty-four-hour increases in HGU, PGU, and PIE and decreases in GNG were compared to baseline values and percent change calculated.
(§4) With alpha-glucosidase, biguanide, TZD, secretagogue, and insulin therapies characterized for their respective impacts on CE, HGU, GNG, IR, PIE, and PGU, identification of their effect on the glucose supply (decrease in CE, increase in HGU, decrease in GNG, decrease in IR) and insulin demand (increase in PIE, increase in PGU) dynamic was assessed according to Equation (2), which provides the SD ratio according to the invention: […]

insulin resistance (IR) [2] = details: cited from earlier work
[3] = test system: hepatic glucose uptake (HGU); details: Iozzo; metformin 2000 mg daily, rosiglitazone 8 mg daily; 26 weeks; PET [18F]FDG, insulin clamp; cited from earlier work
[4] = test system: carbohydrate exposure (CE); test: Glucose supply and insulin demand model: effect on carbohydrate exposure; format: in vivo, human; set-up: scale not given here; details: Metformin 2000 mg, Glyburide 10 mg, Pioglitazone 45 mg, Insulin Glargine 0.5 U/kg daily; pH encapsulated glucose 3.0 grams/day
Method: as §1, §2, §3, §4

[5] = test system: intestinal glucose transfer; details: metformin 50 mg/kg, mice; cited from earlier work
[6] = test system: peripheral insulin exposure (PIE); details: cited from earlier work
[7] = test system: intestinal carbohydrate absorption; details: Jackson; metformin, 75 g oral glucose load with labeled glucose, 3 h; cited from earlier work
[8] = test system: peripheral insulin exposure (PIE); test: Glucose supply and insulin demand model: effect on peripheral insulin exposure; format: in vivo, human
Method: as §1, §2, §3, §4
Twenty-four-hour steady state insulin concentration time curves were superimposed on the baseline secretion profile of the standard T2D patient.

[9] = test system: intestinal glucose utilization; details: cited from earlier work
[10] = test system: peripheral glucose uptake (PGU); test: Glucose supply and insulin demand model: effect on peripheral glucose uptake; format: in vivo, human
Method: as §1, §2, §3, §4

[11] = test system: brush border vesicles isolated from rabbit intestine; details: 5 mM metformin; cited from earlier work
insulin resistance (IR) [12] = test: Glucose supply and insulin demand model: effect on insulin resistance; format: in vivo, human
Method: as §1, §2, §3, §4

[13] = test system: peripheral glucose uptake (PGU); details: cited from earlier work
[14] = test system: hepatic gluconeogenesis (GNG); details: metformin 2550 mg daily, cited from earlier work
[15] = test system: hepatic glucose uptake (HGU); test: Glucose supply and insulin demand model: effect on hepatic glucose uptake; format: in vivo, human
Method: as §1, §2, §3, §4

[16] = Metformin 2000 mg, Glyburide 10 mg, Pioglitazone 45 mg, Insulin Glargine 0.5 U/kg daily, pH encapsulated glucose 3.0 grams/day

## CN(C)C(=N)N=C(N)N [Metformin]
[1]; [16]
  Score HGI: 0.35
[1]; adjustment factor = decrease in hepatic gluconeogenesis at the therapeutic dose of Table 1, T2D
  GNG inhibition: 0.35
Insulin resistance (IR) [2]; T2D patients, maximal therapeutic doses of metformin (Iozzo, Stumvoll, Tiikkainen, Sharma)
  reduction of calculated IR: 38-44%
Insulin resistance (IR) [2]; meta-analysis of randomized controlled trials, people at risk for T2D, metformin
  reduction of calculated IR (HOMA-IR): 22.6%
[3]
  increase in HGU, placebo-subtracted value: +0.008±0.004 μmol/kg^−1/min^−1
[4]
  Score CE: 0.15
[5]
  reduction of net glucose transfer in the serosal fluid: 12%
[6]; Inzucchi, metformin 2000 mg daily, 12 weeks
  mean fasting and postprandial plasma insulin concentrations: slightly, but not significantly reduced
[6]; Iozzo, metformin, before 63±12
  FPI: 43.0 ± 5.0 pmol/L
[6]; Iozzo, metformin
  reduction of FPI: ~30%
[6]; Sharma, metformin 2000 mg daily, 16 weeks, before 76.0±54.5
  FPI: 69.0 ± 45.0 pmol/L
[6]; Sharma, metformin 2000 mg daily, 16 weeks
  reduction in FPI: ~10%
[6]; Stumvoll, metformin, before 12±5
  FPI: 10 μU/ml
[6]; Stumvoll, metformin
  reduction of FPI: 17%
[6]; Tiikkainen, metformin 2000 mg daily, 16 weeks, before 13
  FPI: 9 mU/liter
[6]; Tiikkainen, metformin 2000 mg daily, 16 weeks
  reduction in FPI: ~30%
[6]; metformin
  reduction of FPI concentrations (range over studies): 10-30%
[7]
  absorption of glucose: slightly delayed, but ultimately unaltered
[8]; [16]
  Score PIE: −0.10
[8]; adjustment factor = increase in peripheral insulin exposure at the therapeutic dose of Table 1, T2D
  PIE: −0.10
[9]; Bailey, metformin 250 mg/kg^−1, normal rats, intravenous glucose tolerance test
  increase in glucose utilization in mucosa from different regions of the intestine: 30-60%
[9]; Penicaud, metformin 350 mg/kg^−1/day^−1 for 8 days, obese fa/fa rats
  increase in glucose utilization in the jejunum: 39%
[10]; [16]
  Score PGU: 0.14
[10]; adjustment factor = increase in peripheral glucose uptake at the therapeutic dose of Table 1, T2D
  PGU: 0.14
[11]
  glucose uptake: nominal decrease in glucose uptake
Insulin resistance (IR) [12]; [16]
  Score IR: 0.38
Insulin resistance (IR) [12]; adjustment factor = decrease in insulin resistance at the therapeutic dose of Table 1, T2D
  IR reduction: 0.38
[13]; Inzucchi, metformin 2000 mg daily, 12 weeks, euglycemic hyperinsulinemic clamp at 100 mg/dl
  increase in glucose infusion rate: 13%
[13]; Inzucchi, metformin 2000 mg daily, 12 weeks, euglycemic hyperinsulinemic clamp, before 240
  glucose infusion rate: 272 mg/m^−2/min^−1
[13]; Stumvoll, metformin, before 2.8±0.2
  rate of plasma glucose turnover: 2.0±0.2 mg/kg^−1/min^−1
[13]; Stumvoll, metformin
  systemic glucose disposal: did not change
[13]; Tiikkainen, metformin 2000 mg daily, 16 weeks, clamp at 144 mg/dl, before 0.09±0.01, unchanged
  glucose rate of disappearance: 0.10±0.01 mg/kg^−1/min^−1
[14]; Hundal, 3 months, before 0.42±0.04
  rate of hepatic GNG, ^2H2O method: 0.28±0.03 mmol/m^−2/min^−1
[14]; Hundal, 3 months, before 0.59±0.03
  rate of hepatic GNG, nuclear magnetic resonance method: 0.18±0.03 mmol/m^−2/min^−1
[14]; Hundal, 3 months
  reduction of rate of hepatic GNG, ^2H2O method: 33%
  reduction of rate of hepatic GNG, nuclear magnetic resonance method: 36%
[14]; Stumvoll, 16 weeks, fasted T2D
  reduction of rate of plasma lactate to plasma glucose conversion (GNG): 37%
[14]; Stumvoll, 16 weeks, before 7.3±0.7
  rate of plasma lactate to plasma glucose conversion (GNG): 4.6±0.6 μmol/kg^−1/min^−1
[15]; [16]
  Score HGU: 0.40
[15]; adjustment factor = increase in hepatic glucose uptake at the therapeutic dose of Table 1, T2D
  HGU uptake: 0.40
